{"source": "paper PMC3025356", "about": "“Mechanism of the Ca^2+-Dependent Interaction between S100A4 and Tail Fragments of Nonmuscle Myosin Heavy Chain IIA” (Journal of Molecular Biology, 2011)", "key": {"[1]": {"assay": "Isothermal titration calorimetry of Ca^2+ binding to S100A4 constructs", "procedure": "Fig. 2 ITC records for Ca^2+ binding to S100A4 constructs: (a) 75 μM wild type at 30 °C; (b) 75 μM wild type at 10 °C; (c) 75 μM E33Q construct at 30 °C; (d) 300 μM D63N construct at 30 °C. For mutant constructs data at 10 °C, see Fig. S1. All preparations were dialysed against the same buffer of 20 mM NaCl, 10 mM Hepes, and 2 mM DTT (pH 7.5).\nITC data were collected using a VP-ITC microcalorimeter (MicroCal Ltd., Northampton, MA) and analysed by fitting to a single-site binding equation or a two-site binding equation using MicroCal Origin software."}, "M111": {"system": "M111", "assay": "NMR ^1H,^15N HSQC of labelled M111 on addition of full-length S100A4", "type": "binding, human", "details": "1.5 molar excess of full-length S100A4", "procedure": "Fig. 7 Chemical shift changes in the ^1H,^15N HSQC spectra of ^13C,^15N-labelled M111 on addition of full-length S100A4. Superposition of the spectra in free form (black) and in the presence of a 1.5 molar excess of S100A4 (red). Resonance assignments derived from the analysis of triple-resonance spectra are marked. In addition to sharp intense cross-peaks, the spectra contain broad low-intensity peaks that cannot be assigned due to low sensitivity.\nAll NMR samples were prepared in 20 mM 4-morpholineethanesulfonic acid, 20 mM NaCl, 5 mM CaCl2, and 5% D2O buffer (pH 6.1). DTT (2 mM) was added to the samples containing S100A4. Titration experiments were carried out at 0.2 mM S100A4 using 10 mM peptide solutions. Spectra for M111 backbone resonance assignments were measured using 0.4 mM protein solution. NMR spectra were obtained at 298 K using Bruker AVANCE DRX 600 or AVANCE DRX 800 spectrometers, which are both equipped with cryoprobes. Proton chemical shifts were referenced to external 2,2-dimethyl-2-silapentane-5-sulfonate. The ^15N and ^13C chemical shifts were referenced indirectly using recommended gyromagnetic ratios.[44] Spectra were processed with TopSpin (Bruker) and analysed using Analysis.[45] Three-dimensional HNCO, HN(CA)CO, HNCA, HN(CO)CA, HNCACB, and HN(CO)CACB experiments were used for the sequential assignment of the backbone NH, N, CO, C^α, and C^β resonances."}, "NM-MHC IIA rods": {"biological_target": "NM-MHC IIA rods", "details": "20 mM NaCl; cited from earlier work", "source_text": "Over the last two decades, there has been much interest in the role of the S100 Ca^2^+-binding protein family in the regulation of cellular events.[1,2] Identifying the specific targets of each of the 24 members[3] and deducing their mechanisms of action in vitro and in vivo remain to be a challenge. This is exemplified by S100A4 (also known as Mts1, metastasin, p9Ka, pEL98, calvasculin, and Fsp-1), which has been implicated in a wide range of cellular events and numerous diseases and binds to several different targets in vitro.[4–6] In particular, following early work,[7–9] there have been ma ..."}, "[2]": {"details": "cited from earlier work", "source_text": "Apart from the different methods used to study Ca^2+ binding, which have sensitivities over different concentration ranges, part of the variability in Kd values in the literature may arise from the self-association of S100A4. There is a general consensus[12,13,17,21,22] that S100A4 exists predominantly as a dimer at micromolar concentrations (indeed, this can lead to difficulties in interpreting literature values for stoichiometries quoted as ‘moles of Ca^2+ bound per mole of S100A4’ if the latter is not stated explicitly as being per monomer or per dimer). In the absence of Ca^2+, monomeric S ... || In the absence of added Ca^2+ (i.e., where the free “contaminant” [Ca^2+] in buffers would be of the order of 1 μM), mixing S100A4 with excess Quin-2 produced a small-amplitude signal (corresponding to 0.1 mol of Ca^2+ per mole of S100A4 monomer) with a rate constant of around 1 s^− 1."}}, "note": "Read-outs that look alike come from different tables or passages of the source."}
{"substance": "S100A4: recombinant S100A4 expressed in E. coli BL21(DE3)", "values": [{"measurement": "n1 (Ca^2+ per monomer)", "setting": "[1]; 10 °C, 75 μM protein (D63N 300 μM), 20 mM NaCl, 10 mM Hepes, 2 mM DTT, pH 7.5", "result": "0.95 ± 0.014", "unit": "Ca^2+ per monomer"}, {"measurement": "n1 (Ca^2+ per monomer)", "setting": "[1]; 30 °C, 75 μM protein (D63N 300 μM), 20 mM NaCl, 10 mM Hepes, 2 mM DTT, pH 7.5", "result": "0.83 ± 0.2", "unit": "Ca^2+ per monomer"}, {"measurement": "stoichiometry (discussion)", "setting": "[1]; ITC", "result": "one Ca^2+ per S100A4 monomer"}, {"measurement": "Kd", "setting": "[1]; first site, Ca^2+ binding, 30 °C, 75 μM protein (D63N 300 μM), 20 mM NaCl, 10 mM Hepes, 2 mM DTT, pH 7.5, read-out: K1d", "result": 1.7, "unit": "µM"}, {"measurement": "Kd", "setting": "[1]; first site, 10 °C, wild type and E33Q cooperative, read-out: K1d", "result": "1.6 ± 0.4", "unit": "µM"}, {"measurement": "Kd", "setting": "[1]; one Ca^2+ per S100A4 monomer, read-out: Kd for Ca^2+ (discussion)", "result": 1.7, "unit": "µM"}, {"measurement": "Kd", "setting": "[1]; read-out: Ca^2+ affinity of S100A4 dimer (discussion)", "result": "2 to 6", "unit": "µM"}, {"measurement": "N2 (Ca^2+ per monomer)", "setting": "[1]; second site, 30 °C", "result": "0.42 ± 0.27", "unit": "Ca^2+ per monomer"}, {"measurement": "Kd", "setting": "[1]; second site, 30 °C, read-out: K2d", "result": "5.7 ± 1.1", "unit": "µM"}, {"measurement": "stoichiometry of the higher-affinity site", "setting": "[1]; summary of Table 1", "result": "0.8–0.9 Ca^2+ per monomer"}, {"measurement": "Kd", "setting": "[1]; temperatures of ≥ 30 °C, read-out: Kd of second site (discussion)", "result": 6, "unit": "µM"}, {"measurement": "resonance broadening in M111 on S100A4 addition", "setting": "M111", "result": "additional broadening of resonances in the 1926–1939 region"}, {"measurement": "binding to rods", "setting": "NM-MHC IIA rods", "result": "micromolar affinity"}, {"measurement": "protein concentration at which monomer is detected", "setting": "[2]; absence of Ca^2+", "result": "below 2 μM"}, {"measurement": "concentration at which tetrameric and higher aggregates become significant", "setting": "[2]; presence of Ca^2+", "result": "exceeding 20 μM"}, {"measurement": "Ca^2+ affinity of tetramer relative to dimer", "setting": "[2]; suggested by ultracentrifuge data", "result": "about 20 -fold"}]}
